# Measured values published in patent publication US20030186997A1, “2,5-Dihydro-pyrazolo[3,4-d]pyrimidin-4-ones with an anticonsulsive action and methods for producing the same” (priority 2000, published 2003).
# Assays:
# maximal electroshock [1] = experiment: Anticonvulsant action, maximal electroshock (MES), mouse i.p.; assay type: in vivo; conditions: ip, read-out: Action in % of the protected animals
# Experimental: (§1) The compounds according to the invention were tested for their anticonvulsant action in vivo after i.p. administration to mice according to the international customary standard (Pharmac. Weekblad, Sc. Ed. 14, 132 (1992) and Antiepileptic Drugs, Third Ed., Raven Press, New York 1989) (Table 1). [table]
# s.c. pentetrazole = experiment: Anticonvulsant action, s.c. pentetrazole (PTZ), mouse i.p.; assay type: in vivo; conditions: ip, read-out: Action in % of the protected animals
# Experimental: as §1
# [2] = Octanol/water partition coefficient; assay type: physicochemical
# bicuculline = experiment: Convulsion model using bicuculline; assay type: in vivo; conditions: bicuculline as convulsion-inducing cause
# Experimental: (§2) This compound is also active in convulsion models using bicuculline and picrotoxin as convulsion-inducing cause. Compound 14 (5-(2-methylbenzyl)-2-methyl-2,5-dihydropyrazolo[3,4-d]pyrimidin-4-one) is likewise strongly anticonvulsant with a large therapeutic breadth (ED50 (rat p.o.) =9 mg/kg, NT50>300 mg/kg). Compound 21 has a similar pharmacological profile (ED50 (rat p.o.) =3 mg/kg, NT50>300 mg/kg).
# picrotoxin = assay type: in vivo
# Experimental: as §2
# maximal electroshock [3] = experiment: Maximal electroshock in the rat, p.o.; assay type: in vivo; conditions: po
# Experimental: as §2
# Neurotoxicity (NT50) = assay type: in vivo; conditions: rat
# Experimental: as §2
Compound,logP [2],melting point [°C],responders at 100 mg/kg (maximal electroshock [1]) [%],responders at 100 mg/kg (s.c. pentetrazole) [%],responders at 300 mg/kg (s.c. pentetrazole) [%],also measured
"O=c1c2c[nH]nc2ncn1Cc1ccccc1 [5-benzyl-2,5-dihydropyrazolo[3,4-d]pyrimidin-4-one, reference compound]",0.47,–,–,–,–,responders at 30 mg/kg (maximal electroshock [1]): 100%; responders at 30 mg/kg (s.c. pentetrazole; dose 30 mg/kg): 100%
"NC(=O)N1c2ccccc2C=Cc2ccccc21 [Carbamazepine, reference compound]",–,–,100,0,–,–
"O=c1c2c[nH]nc2ncn1Cc1ccccc1Cl [Compound 1, 5-(2-chlorobenzyl)-2,5-dihydropyrazolo[3,4-d]pyrimidin-4-one]",1.14,186 to 187,–,80,–,responders at 30 mg/kg (maximal electroshock [1]): 100%; activity in convulsion model (bicuculline): active; activity in convulsion model (picrotoxin): active; ED50 (maximal electroshock [3]): 18 mg/kg; NT50 (neurotoxicity) (Neurotoxicity (NT50)): > 500 mg/kg
"O=c1c2c[nH]nc2ncn1Cc1ccc(Cl)cc1 [Compound 2, 5-(4-chlorobenzyl)-2,5-dihydropyrazolo[3,4-d]pyrimidin-4-one]",1.34,246 to 247,33,–,–,–
"O=c1c2c[nH]nc2ncn1Cc1ccc(F)cc1 [Compound 3, 5-(4-fluorobenzyl)-2,5-dihydropyrazolo[3,4-d]pyrimidin-4-one]",0.62,260 to 261,33,–,60,–
"O=c1c2c[nH]nc2ncn1Cc1ccc(Cl)cc1Cl [Compound 4, 5-(2,4-dichlorobenzyl)-2,5-dihydropyrazolo[3,4-d]-pyrimidin-4-one]",1.96,236 to 237,100,–,40,–
"O=c1c2c[nH]nc2ncn1Cc1c(F)cccc1F [Compound 5, 5-(2,6-difluorobenzyl)-2,5-dihydropyrazolo[3,4-d]-pyrimidin-4-one]",0.28,214 to 216,–,–,–,responders at 30 mg/kg (maximal electroshock [1]): 100%
"Cc1ccccc1Cn1cnc2n[nH]cc2c1=O [Compound 6, 5-(2-methylbenzyl)-2,5-dihydropyrazolo[3,4-d]pyrimidin-4-one]",1.36,221 to 222,67,–,100,–
"O=c1c2c[nH]nc2ncn1Cc1ccccc1C(F)(F)F [Compound 8, 5-(2-trifluoromethylbenzyl)-2,5-dihydropyrazolo[3,4-d]-pyrimidin-4-one]",0.78,168 to 171,67,20,–,–
"Cn1cc2c(=O)n(Cc3ccccc3)cnc2n1 [Compound 13, 5-benzyl-2-methyl-2,5-dihydropyrazolo[3,4-d]pyrimidin-4-one]",0.72,202 to 204,100,–,–,–
"Cc1ccccc1Cn1cnc2nn(C)cc2c1=O [Compound 14, 5-(2-methylbenzyl)-2-methyl-2,5-dihydropyrazolo[3,4-d]-pyrimidin-4-one]",1.76,185 to 186,–,80,–,responders at 30 mg/kg (maximal electroshock [1]): 100%; ED50 (maximal electroshock [3]): 9 mg/kg
"COc1ccccc1Cn1cnc2nn(C)cc2c1=O [Compound 17, 5-(2-methoxybenzyl)-2-methyl-2,5-dihydropyrazolo[3,4-d]-pyrimidin-4-one]",0.92,160 to 162,100,–,100,–
"CCCC(CCC)C(=O)O [Valproate, reference compound]",–,–,0,30,–,–

# Further lines, with some results ahead:
logP [2],melting point [°C],Compound,responders at 100 mg/kg (maximal electroshock [1]) [%],responders at 100 mg/kg (s.c. pentetrazole) [%],responders at 300 mg/kg (s.c. pentetrazole) [%],also measured
1.56,169 to 170,"Cn1cc2c(=O)n(Cc3cccc(Cl)c3)cnc2n1 [Compound 19, 5-(3-chlorobenzyl) -2-methyl-2,5-dihydropyrazolo[3,4-d]-pyrimidin-4-one]",100,–,–,–
0.67,226 to 228,"Cn1cc2c(=O)n(Cc3c(F)cccc3F)cnc2n1 [Compound 21, 5-(2,6-difluorobenzyl)-2-methyl-2,5-dihydropyrazolo[3,4-d]pyrimidin-4-one]",–,80,–,responders at 30 mg/kg (maximal electroshock [1]): 100%; ED50 (maximal electroshock [3]): 3 mg/kg
1.43,185 to 187,"CCn1cc2c(=O)n(Cc3c(F)cccc3F)cnc2n1 [Compound 37, 5-(2,6-difluorobenzyl)-2-ethyl-2,5-dihydropyrazolo[3,4-d]-pyrimidin-4-one]",80,–,20,–
1.88,159 to 161,"CC(C)n1cc2c(=O)n(Cc3c(F)cccc3Cl)cnc2n1 [Compound 43, 5-(2-chloro-6-fluorobenzyl)-2-isopropyl-2,5-dihydropyrazolo[3,4-d]pyrimidin-4-one]",–,–,33,responders at 300 mg/kg (maximal electroshock [1]; dose 300 mg/kg): 100%
2.59,167 to 168,"O=c1c2cn(Cc3ccccc3Cl)nc2ncn1Cc1ccccc1Cl [Compound 58, 2,5-bis(2-chlorobenzyl)-2,5-dihydropyrazolo[3,4-d]-pyrimidin-4-one]",–,–,–,–
1.67,128 to 130,"O=c1c2cn(CC3CCCO3)nc2ncn1Cc1ccccc1Cl (centres unmarked) [Compound 60, 5-(2-chlorobenzyl)-2-tetrahydrofuran-2-ylmethyl-2,5-dihydropyrazolo[3,4-d]pyrimidin-4-one]",67,–,–,–
–,201 to 202,"Cc1nc2nn(C)cc2c(=O)n1Cc1c(F)cccc1F [Compound 64, 5-(2,6-difluorobenzyl)-2,6-dimethyl-2,5-dihydropyrazolo[3,4-d]pyrimidin-4-one]",–,–,–,–
